{"source": "paper PMC9519446", "about": "“Discovery of an Orally Active Benzoxaborole Prodrug Effective in the Treatment of Chagas Disease in Non-human Primates” (Nature microbiology, 2022)", "system": "recombinant T. cruzi proteins", "experiment": "Luminex-based multiplex serological assay (IgG to recombinant T. cruzi proteins)", "format": "in vivo, rhesus macaques (Macaca mulatta)", "conditions": "treated animal T19", "description": "Luminex-based multiplex serological assays were performed as previously described, [17]. For a number of smaller proteins, fusions of up to 2 individual genes are employed for some target proteins in order to expand the array of antibodies being detected while controlling costs and complexity of the assay. (TritrypDb.org identifiers: Tc1= fusion of TcBrA4_0116860 and TcYC6_0028190; Tc2= fusion of TcBrA4_0088420 and TcBrA4_0101960; Tc3 = fusion of TcBrA4_0104680 and TcBrA4_0101980; Tc4= fusion of TcBrA4_0028480 and TcBrA4_0088260; Tc5 = fusion of TcYC6_0100010 and TcBrA4_0074300; Tc7 = fusion of TcYC6_0083710 and TcBrA4_0130080; Tc8 = TcYC6_0037170; Tc11 = TcYC6_0124160; Tc17 = fusion of TcBrA4_0028230 and TcBrA4_0029760; Kn107 = TcCLB.508355.250; G10 = TcCLB.504199.20). Macaque antibody binding to individual beads in the Multiplex assays was detected with donkey anti-human IgG (H+L) conjugated to phycoerythrin (Jackson ImmunoResearch) in a 1:200 dilution."}
{"smiles": "Cc1c(C(=O)N[C@H](C(=O)OCC2CCOCC2)C(C)C)ccc2c1B(O)OC2", "note": "[AN15368]", "values": [{"measurement": "IgG response to G10 (36)", "setting": "2018-01-23", "value": 14.8}, {"measurement": "IgG response to Kn107 (20)", "setting": "2018-01-23", "value": 214.8}, {"measurement": "IgG response to Tc1 (3)", "setting": "2018-01-23", "value": 4009.3}, {"measurement": "IgG response to Tc2 (6)", "setting": "2018-01-23", "value": 590.8}, {"measurement": "IgG response to Tc3 (11)", "setting": "2018-01-23", "value": -15.0}, {"measurement": "IgG response to Tc4 (16)", "setting": "2018-01-23", "value": 80.0}, {"measurement": "IgG response to Tc5 (22)", "setting": "2018-01-23", "value": 19.8}, {"measurement": "IgG response to Tc7 (27)", "setting": "2018-01-23", "value": 2161.8}, {"measurement": "IgG response to Tc8 (31)", "setting": "2018-01-23", "value": 13766.8}, {"measurement": "IgG response to Tc11 (35)", "setting": "2018-01-23", "value": 289.0}, {"measurement": "IgG response to Tc17 (51)", "setting": "2018-01-23", "value": 2186.0}, {"measurement": "IgG response to Tc lysate (50)", "setting": "2018-01-23", "value": 2937.3}, {"measurement": "IgG response to G10 (36)", "setting": "2018-02-27", "value": 83.0}, {"measurement": "IgG response to Kn107 (20)", "setting": "2018-02-27", "value": -14.5}, {"measurement": "IgG response to Tc1 (3)", "setting": "2018-02-27", "value": 2826.0}, {"measurement": "IgG response to Tc2 (6)", "setting": "2018-02-27", "value": 413.5}, {"measurement": "IgG response to Tc3 (11)", "setting": "2018-02-27", "value": 17.5}, {"measurement": "IgG response to Tc4 (16)", "setting": "2018-02-27", "value": 111.0}, {"measurement": "IgG response to Tc5 (22)", "setting": "2018-02-27", "value": 6.8}, {"measurement": "IgG response to Tc7 (27)", "setting": "2018-02-27", "value": 1831.8}, {"measurement": "IgG response to Tc8 (31)", "setting": "2018-02-27", "value": 11208.3}, {"measurement": "IgG response to Tc11 (35)", "setting": "2018-02-27", "value": 163.8}, {"measurement": "IgG response to Tc17 (51)", "setting": "2018-02-27", "value": 1943.5}, {"measurement": "IgG response to Tc lysate (50)", "setting": "2018-02-27", "value": 1833.0}, {"measurement": "IgG response to G10 (36)", "setting": "2018-03-28", "value": -25.5}, {"measurement": "IgG response to Kn107 (20)", "setting": "2018-03-28", "value": 5.5}, {"measurement": "IgG response to Tc1 (3)", "setting": "2018-03-28", "value": 1762.3}, {"measurement": "IgG response to Tc2 (6)", "setting": "2018-03-28", "value": 386.3}, {"measurement": "IgG response to Tc3 (11)", "setting": "2018-03-28", "value": 60.0}, {"measurement": "IgG response to Tc4 (16)", "setting": "2018-03-28", "value": 6.0}, {"measurement": "IgG response to Tc5 (22)", "setting": "2018-03-28", "value": 32.5}, {"measurement": "IgG response to Tc7 (27)", "setting": "2018-03-28", "value": 1344.3}, {"measurement": "IgG response to Tc8 (31)", "setting": "2018-03-28", "value": 8779.3}, {"measurement": "IgG response to Tc11 (35)", "setting": "2018-03-28", "value": 66.5}, {"measurement": "IgG response to Tc17 (51)", "setting": "2018-03-28", "value": 1378.0}, {"measurement": "IgG response to Tc lysate (50)", "setting": "2018-03-28", "value": 1572.0}, {"measurement": "IgG response to G10 (36)", "setting": "2019-02-19", "value": -6.3}, {"measurement": "IgG response to Kn107 (20)", "setting": "2019-02-19", "value": 9.8}, {"measurement": "IgG response to Tc1 (3)", "setting": "2019-02-19", "value": 1092.5}, {"measurement": "IgG response to Tc2 (6)", "setting": "2019-02-19", "value": 189.8}, {"measurement": "IgG response to Tc3 (11)", "setting": "2019-02-19", "value": 63.8}, {"measurement": "IgG response to Tc4 (16)", "setting": "2019-02-19", "value": 9.0}, {"measurement": "IgG response to Tc5 (22)", "setting": "2019-02-19", "value": 22.0}, {"measurement": "IgG response to Tc7 (27)", "setting": "2019-02-19", "value": 910.3}, {"measurement": "IgG response to Tc8 (31)", "setting": "2019-02-19", "value": 5960.0}, {"measurement": "IgG response to Tc11 (35)", "setting": "2019-02-19", "value": 51.0}, {"measurement": "IgG response to Tc17 (51)", "setting": "2019-02-19", "value": 927.0}, {"measurement": "IgG response to Tc lysate (50)", "setting": "2019-02-19", "value": 1211.8}, {"measurement": "IgG response to G10 (36)", "setting": "2020-06-18", "value": -46.3}, {"measurement": "IgG response to Kn107 (20)", "setting": "2020-06-18", "value": 15.0}, {"measurement": "IgG response to Tc1 (3)", "setting": "2020-06-18", "value": 454.3}, {"measurement": "IgG response to Tc2 (6)", "setting": "2020-06-18", "value": 7.3}, {"measurement": "IgG response to Tc3 (11)", "setting": "2020-06-18", "value": 76.3}, {"measurement": "IgG response to Tc4 (16)", "setting": "2020-06-18", "value": 6.0}, {"measurement": "IgG response to Tc5 (22)", "setting": "2020-06-18", "value": 2.0}, {"measurement": "IgG response to Tc7 (27)", "setting": "2020-06-18", "value": 373.3}, {"measurement": "IgG response to Tc8 (31)", "setting": "2020-06-18", "value": 3159.8}, {"measurement": "IgG response to Tc11 (35)", "setting": "2020-06-18", "value": 48.5}, {"measurement": "IgG response to Tc17 (51)", "setting": "2020-06-18", "value": 793.0}, {"measurement": "IgG response to Tc lysate (50)", "setting": "2020-06-18", "value": 640.8}, {"measurement": "IgG response to G10 (36)", "setting": "2021-05-20", "value": 11.0}, {"measurement": "IgG response to Kn107 (20)", "setting": "2021-05-20", "value": 65.5}, {"measurement": "IgG response to Tc1 (3)", "setting": "2021-05-20", "value": 42.3}, {"measurement": "IgG response to Tc2 (6)", "setting": "2021-05-20", "value": -7.8}, {"measurement": "IgG response to Tc3 (11)", "setting": "2021-05-20", "value": 3.8}, {"measurement": "IgG response to Tc4 (16)", "setting": "2021-05-20", "value": -20.3}, {"measurement": "IgG response to Tc5 (22)", "setting": "2021-05-20", "value": 1.5}, {"measurement": "IgG response to Tc7 (27)", "setting": "2021-05-20", "value": 293.3}, {"measurement": "IgG response to Tc8 (31)", "setting": "2021-05-20", "value": 1814.0}, {"measurement": "IgG response to Tc11 (35)", "setting": "2021-05-20", "value": 133.3}, {"measurement": "IgG response to Tc17 (51)", "setting": "2021-05-20", "value": 399.3}, {"measurement": "IgG response to Tc lysate (50)", "setting": "2021-05-20", "value": 384.5}]}
